Some test systems named below: SK-MEL-28; EKVX; OVCAR-4; HCT-15; ACHN; MOLT-4; TK-10; SK-OV-3; UACC-62; RXF 393; BT-549; SK-MEL-2; HOP-62; 786-0; M14; HOP-92; SF-295; NCI-H23; SNB-75.
What all share (experiment): DTP human tumour cell line panel, 48 h

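In this assay, cells in 96-well plates receive the compound at five concentrations for 48 hours. Endpoints are linearly interpolated between the surrounding concentrations. Abbreviation: GI50, concentration required for 50% inhibition of growth.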 Active and inactive are the calls of the source. Cut-off read from the data, not from the text of the source: active = GI50 up to about 1.1 µM and inactive = higher.

For orientation: GI50 means the concentration at which growth is held to half of that of the control. As for `CN(C)CCCn1c(Cn2nc3ccccc3n2)nc2cc(C(F)(F)F)ccc21`, the GI50 in the test on SK-MEL-28 was 17.4 µM (inactive); in the test with EKVX, 28.3 µM (inactive); in the test on OVCAR-4, 33.4 µM (inactive); with HCT-15, 30.1 µM; with ACHN, 41.5 µM (inactive); in the test with MOLT-4, 19.1 µM (inactive). In addition, the GI50 in the test with TK-10 is 24 µM (inactive); in the test with SK-OV-3, 16.9 µM (inactive); in the test on UACC-62, 19.2 µM (inactive); with RXF 393, 22.1 µM (inactive); with BT-549, 16.8 µM (inactive); in the test on SK-MEL-2, 19.4 µM (inactive). Moreover, the GI50 in the test on HOP-62 was 64.4 µM (inactive); with 786-0, 19.3 µM (inactive); in the test with M14, 15.3 µM (inactive); in the test on HOP-92, 8.71 µM (inactive); in the test with SF-295, 44.1 µM (inactive); with NCI-H23, 34 µM (inactive).

As to `CC(C)(C)OC(=O)NC(Cc1ccc(OCc2ccccc2)cn1)C(=O)O` (stereo not given), the GI50 with SK-MEL-28 was > 100 µM (inactive); in the test with EKVX it was > 100 µM (inactive); in the test with OVCAR-4 it was > 100 µM (inactive); with HCT-15, greater than 100 µM; in the test on ACHN, > 100 µM (inactive); with TK-10, > 100 µM (inactive). The GI50 in the test with RXF 393, in the test on BT-549, in the test on HOP-62, with 786-0, with HOP-92 and in the test on SF-295 was > 100 µM (inactive) in each case. For the same molecule, the GI50 in the test with NCI-H23 is > 100 µM (inactive).

For the molecule `N#C/C(=C\c1cc(Br)c(O)c(Br)c1)c1cccnc1`, the GI50 in the test on SK-MEL-28 is 27.6 µM (inactive); in the test on EKVX it was 19.1 µM (inactive); in the test on OVCAR-4, 33.3 µM (inactive); in the test on HCT-15, 17.7 µM; in the test with ACHN, 36.3 µM (inactive); in the test with MOLT-4, 23.9 µM (inactive). The GI50 in the test on TK-10 was 27.4 µM (inactive); in the test on SNB-75, 75 µM (inactive); in the test with SK-OV-3 it was 42.2 µM (inactive); in the test on UACC-62, 43.8 µM (inactive); in the test with RXF 393 it was 41.3 µM (inactive); in the test with BT-549, 22.5 µM (inactive). In addition, the GI50 with SK-MEL-2 was 19.3 µM (inactive); in the test on HOP-62 it was 32.8 µM (inactive); in the test with 786-0 it was 10.1 µM (inactive); with M14, 26.1 µM (inactive); in the test with SF-295, 18.5 µM (inactive); in the test with NCI-H23 it was 21 µM (inactive).

On to `CC1=Nc2sc3c(c2C2=NCCN12)CCCC3`, for which the GI50 with SK-MEL-28 is 28.6 µM (inactive); in the test on EKVX, 23.4 µM (inactive); in the test on OVCAR-4, 42.4 µM (inactive); with HCT-15, 29.9 µM; in the test with ACHN, 25.8 µM (inactive); in the test on MOLT-4, 26.1 µM (inactive). In addition, the GI50 with TK-10 was 36.8 µM (inactive); in the test on SNB-75 it was 37.2 µM (inactive); in the test with UACC-62, 15.3 µM (inactive); in the test on RXF 393, 31.3 µM (inactive); in the test with BT-549 it was 19.1 µM (inactive); in the test on SK-MEL-2 it was 35.8 µM (inactive). Moreover, the GI50 in the test on HOP-62 was 40.6 µM (inactive); in the test with 786-0, 21.8 µM (inactive); with SF-295 it was 33.5 µM (inactive); in the test on NCI-H23, 18.7 µM (inactive).

On to `Cc1ccc2c(=O)c(-c3nnc(N)s3)c[nH]c2n1`, for which the GI50 in the test with SK-MEL-28 was > 100 µM (inactive); in the test on EKVX it was > 100 µM (inactive); in the test with OVCAR-4, > 100 µM (inactive); with HCT-15 it was greater than 100 µM; with ACHN, > 100 µM (inactive); in the test on MOLT-4, > 100 µM (inactive). For the same molecule, the GI50 in the test on TK-10 was > 100 µM (inactive); with UACC-62, > 100 µM (inactive); with RXF 393 it was 83.4 µM (inactive); in the test on BT-549 it was > 100 µM (inactive); in the test with SK-MEL-2 it was > 100 µM (inactive); with HOP-62, 18.6 µM (inactive). Further, the GI50 is 55.2 µM (inactive) with 786-0, > 100 µM (inactive) in the test with M14, > 100 µM (inactive) in the test on SF-295 and > 100 µM (inactive) in the test on NCI-H23.

For the molecule `Cc1ccc2nc(-c3ccc(N)c(Br)c3)sc2c1`, the GI50 in the test with SK-MEL-28 was > 100 µM (inactive); in the test with EKVX it was 15.2 µM (inactive); in the test on OVCAR-4, 33.5 µM (inactive); in the test on HCT-15, 7.01 µM; with ACHN, 36.3 µM (inactive); in the test on MOLT-4 it was 4.33 µM (inactive). For the same molecule, the GI50 with SK-OV-3 was 22.5 µM (inactive); in the test on UACC-62, 23.8 µM (inactive); in the test with RXF 393, 18.2 µM (inactive); with BT-549, 14.9 µM (inactive); with SK-MEL-2, 27.9 µM (inactive); in the test on HOP-62, 13.5 µM (inactive). For the same molecule, the GI50 is 29.1 µM (inactive) in the test on 786-0; 26.7 µM (inactive) in the test with M14; 19.7 µM (inactive) in the test on HOP-92; 34.8 µM (inactive) in the test on SF-295; 22.2 µM (inactive) in the test with NCI-H23.

Take `CCCCCCCCCCOc1ccc(/N=N/c2nnc(-c3ccc(OCCCCC)cc3)s2)cc1`: the GI50 was > 100 µM (inactive) with SK-MEL-28; > 100 µM (inactive) in the test on EKVX; > 100 µM (inactive) with OVCAR-4; greater than 100 µM with HCT-15; 93.5 µM (inactive) in the test on ACHN; > 100 µM (inactive) with MOLT-4. Further, the GI50 was > 100 µM (inactive) in the test with TK-10; > 100 µM (inactive) in the test on SK-OV-3; 48 µM (inactive) in the test with UACC-62; 65 µM (inactive) in the test on RXF 393; > 100 µM (inactive) with BT-549; > 100 µM (inactive) in the test with HOP-62. In addition, the GI50 is > 100 µM (inactive) in the test with 786-0; > 100 µM (inactive) in the test on M14; > 100 µM (inactive) in the test on HOP-92; 62.5 µM (inactive) in the test on SF-295; > 100 µM (inactive) in the test with NCI-H23.

Regarding `O=c1[nH]nc(Cc2ccccc2)n1/N=C/c1ccccc1Cl`, the GI50 in the test on EKVX was > 100 µM (inactive); in the test on OVCAR-4, > 100 µM (inactive); in the test with HCT-15, greater than 100 µM; with ACHN, > 100 µM (inactive); with MOLT-4, > 100 µM (inactive); with TK-10, > 100 µM (inactive). For the same molecule, the GI50 is > 100 µM (inactive) in the test with SK-OV-3; > 100 µM (inactive) with UACC-62; 3.56 µM (inactive) in the test with RXF 393; > 100 µM (inactive) in the test on BT-549; > 100 µM (inactive) in the test on SK-MEL-2; 41.1 µM (inactive) with 786-0. Moreover, the GI50 was 95.9 µM (inactive) in the test with HOP-92, 52.2 µM (inactive) with SF-295 and > 100 µM (inactive) in the test on NCI-H23.

For the molecule `CCOC(=O)c1cc(=O)c2ccnc3c2n1CCS3`, the GI50 is > 100 µM (inactive) in the test with SK-MEL-28; > 100 µM (inactive) in the test on EKVX; greater than 100 µM in the test with HCT-15; > 100 µM (inactive) with ACHN; > 100 µM (inactive) in the test with MOLT-4; > 100 µM (inactive) with TK-10. Also, the GI50 in the test on SNB-75 is 8.3 µM (inactive); with SK-OV-3 it was > 100 µM (inactive); in the test on UACC-62, > 100 µM (inactive); in the test with BT-549, 62.2 µM (inactive); with SK-MEL-2, > 100 µM (inactive); in the test with HOP-62 it was 48.5 µM (inactive). Besides, the GI50 in the test with 786-0 was > 100 µM (inactive); with M14, > 100 µM (inactive); in the test on HOP-92 it was 66.4 µM (inactive); with SF-295 it was > 100 µM (inactive); in the test on NCI-H23, 32.1 µM (inactive).

As for `CNC(=O)c1ccccc1-[s+]1c2ccccc2c(=O)n1C` (stereo not given), the GI50 in the test with SK-MEL-28 is > 100 µM (inactive); in the test on EKVX it was > 100 µM (inactive); in the test with OVCAR-4, > 100 µM (inactive); with HCT-15, greater than 100 µM; with ACHN it was > 100 µM (inactive); in the test with MOLT-4 it was > 100 µM (inactive). Besides, the GI50 in the test on TK-10, with UACC-62, with RXF 393, with BT-549, in the test on SK-MEL-2 and in the test with HOP-62 was > 100 µM (inactive) in each case. The GI50 with 786-0, with M14, in the test with HOP-92, with SF-295 and in the test on NCI-H23 was > 100 µM (inactive) each time.

`Nc1nc(Cl)c2ncn(Cc3ccccc3CCl)c2n1`: the GI50 was 4.81 µM (inactive) in the test on SK-MEL-28; 15.9 µM (inactive) in the test on EKVX; 2.48 µM (inactive) in the test on OVCAR-4; 2.69 µM with HCT-15; 5.69 µM (inactive) with ACHN; 5.19 µM (inactive) with MOLT-4. For the same molecule, the GI50 with TK-10 is 17.7 µM (inactive); in the test with SNB-75 it was 8.13 µM (inactive); in the test on SK-OV-3, 15.3 µM (inactive); with UACC-62, 2.21 µM (inactive); in the test with BT-549 it was 8.18 µM (inactive); in the test on SK-MEL-2, 18.5 µM (inactive). Besides, the GI50 in the test with HOP-62 is 21.6 µM (inactive); in the test with 786-0 it was 16.9 µM (inactive); with M14, 5.73 µM (inactive); in the test with HOP-92, 6.52 µM (inactive); in the test on SF-295, 7.4 µM (inactive); in the test on NCI-H23, 3.03 µM (inactive).

With `CC1=C(C#N)S(=O)(=O)c2c(oc(C)c2C)N1`, the GI50 in the test on SK-MEL-28 was > 100 µM (inactive); in the test on EKVX, > 100 µM (inactive); with OVCAR-4, > 100 µM (inactive); in the test with HCT-15 it was greater than 100 µM; with ACHN, > 100 µM (inactive); in the test with MOLT-4 it was > 100 µM (inactive). For the same molecule, the GI50 in the test with TK-10, with SNB-75, in the test with SK-OV-3, in the test on UACC-62, in the test on BT-549 and in the test on SK-MEL-2 was > 100 µM (inactive) each time. The GI50 in the test on HOP-62, with 786-0, in the test with M14, with HOP-92, in the test with SF-295 and in the test with NCI-H23 was > 100 µM (inactive) throughout.

The record behind these values is ChEMBL document CHEMBL1201862, “PubChem BioAssay data set” (2004).
